Test results as given in patent publication US20050020588A1, “Cysteine protease inhibitors” (priority 1999, published 2005).

Key:
Format in all cases: biochemical
Mammalian Cathepsin L = Mammalian Cathepsin L (Homo sapiens, UniProt P07711); test: Ki competitive inhibition, cathepsin L; conditions: Table 1, second line of each CAP-P2 block; read-out: Ki competitive inhibition measurements vs Mammalian Cathepsin L
Procedure: (§1) Data were saved as text files and imported into Excel. The initial rates were determined by linear regression and then fitted to the competitive inhibition equation using SigmaPlot.
(§2) Assays were performed essentially as above. For cathepsin L, the buffer used was 100 mM sodium acetate, 1 mM EDTA, pH 5.5 and the substrate was D-Val-Leu-Lys-AMC with a highest concentration of 100 μM. For cathepsin K, the buffer used was 100 mM MES/Tris, 1 mM EDTA, pH 7.0 and the substrate was D-Ala-Leu-Lys-AMC with a highest concentration of 250 μM.

Mammalian Cathepsin K = biological target: T1, Mammalian Cathepsin K (Homo sapiens, UniProt P43235); test: Ki competitive inhibition, cathepsin K; conditions: Table 1, third line of each CAP-P2 block; read-out: Ki competitive inhibition measurements vs Mammalian Cathepsin K
T1 sequence (P43235 115-329): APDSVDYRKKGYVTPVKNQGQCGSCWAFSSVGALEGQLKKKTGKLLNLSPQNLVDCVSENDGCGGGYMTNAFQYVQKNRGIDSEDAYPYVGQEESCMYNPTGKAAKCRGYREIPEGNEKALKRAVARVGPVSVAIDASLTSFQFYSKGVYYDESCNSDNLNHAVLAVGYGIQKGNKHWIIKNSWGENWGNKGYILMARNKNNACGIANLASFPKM
Procedure: as §2
Convenient assays for cathepsin K arere carried out using human recombinant enzyme. Standard assay conditions for the determination of kinetic constants used a fluorogenic peptide substrate, typically H-D-Ala-Leu-Lys-AMC, and were determined in either 100 mM Mes/Tris, pH 7.0 containing 1 mM EDTA and 10 mM 2-mercaptoethanol or 100 mM Na acetate, pH 5.5 containing 5 mM EDTA and 20 mM cysteine. The enzyme concentration used was 5 nM. The stock substrate solution was prepared at 10 mM in DMSO. Screens were carried out at a fixed substrate concentration of 60 μM and detailed kinetic studies with doubling dilutions of substrate from 250 μM. The total DMSO concentration in the assay was kept below 3%. All assays were conducted at ambient temperature. Product fluorescence (excitation at 390 nm, emission at 460 nm) was monitored with a Labsystems Fluoroskan Ascent fluorescent plate reader. Product progress curves were generated over 15 minutes following generation of AMC product.
Potential inhibitors are screened using the above assay with variable concentrations of test compound. Reactions were initiated by addition of enzyme to buffered solutions of substrate and inhibitor. Ki values were calculated according to equation 1 [formula] where ν0 is the velocity of the reaction, V is the maximal velocity, S is the concentration of substrate with Michaelis constant of KM, and I is the concentration of inhibitor. Determination of Falcipain 2 Proteolytic Catalytic Activity

Mammalian Cathepsin S = Mammalian Cathepsin S (Homo sapiens, UniProt P25774); test: Ki competitive inhibition, mammalian cathepsin S; conditions: Table 1, first line of each CAP-P2 block; read-out: Ki competitive inhibition measurements vs Mammalian Cathepsin S
Procedure: Cathepsin S (Mammalian, murine and rat)
Assays were performed in 100 mM sodium phosphate, 100 mM NaCl, pH 6.5 (buffer) in white 384 well plates (Coming Costar). Eight inhibitors were assayed per plate.
Inhibitor dilutions were performed on a 96 well V-bottomed polypropylene plate (Corning Costar). 100 μl of buffer was placed in wells 2-5 and 7-12 of rows A, B, C and D. Sufficient of each inhibitor at 10 mM in DMSO was placed into wells A1-D1 and A6-D6 to give the desired final concentration when the volume in the well was made up to 200 μl with buffer. Column 1 was made up to 200 μl with buffer, mixed by aspirating and dispensing 100 μl in the well, and 100 μl transferred to column 2. The pipette tips were changed and the mixing and transferral repeated to column 5. This process was repeated for columns 6-10.
Substrate dilutions were performed on a 96 deep well polypropylene plate (Beckman Coulter). 280 μl of buffer was placed in wells B-H of columns 1 and 2.70 μl of 10 mM boc-Val-Leu-Lys-AMC was placed in A1 and A2. 2×250 μl of buffer was added to wells A1 and A2, mixed by aspirating and dispensing 280 μl in the well, and 280 μl transferred to row B. The pipette tips were changed and the process repeated down the plate to row H.
Column 1 of the substrate dilution plate was distributed at 10 μl per well into alternate rows beginning at row A. Column 2 was distributed to alternate rows beginning at row B. Row A of the inhibitor dilution plate was distributed at 10 μl per well to alternate rows and columns starting at A1. Row B was distributed to alternate rows and columns starting at A2. Row C was distributed to alternate rows and columns starting at B1 and row D was distributed to alternate rows and columns starting at B2. The assay was started by the addition of 30 μl per well of 20 nM cathepsin S in buffer containing 10 mM 2-mercaptoethanol.
as §1

Sequence of Mammalian Cathepsin L (P07711 114-333): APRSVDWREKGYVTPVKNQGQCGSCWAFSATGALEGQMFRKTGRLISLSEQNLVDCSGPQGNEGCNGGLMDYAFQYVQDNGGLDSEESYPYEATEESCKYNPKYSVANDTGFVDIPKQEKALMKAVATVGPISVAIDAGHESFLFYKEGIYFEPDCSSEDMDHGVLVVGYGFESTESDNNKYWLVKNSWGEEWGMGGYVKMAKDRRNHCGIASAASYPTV
Sequence of Mammalian Cathepsin S (P25774 115-331): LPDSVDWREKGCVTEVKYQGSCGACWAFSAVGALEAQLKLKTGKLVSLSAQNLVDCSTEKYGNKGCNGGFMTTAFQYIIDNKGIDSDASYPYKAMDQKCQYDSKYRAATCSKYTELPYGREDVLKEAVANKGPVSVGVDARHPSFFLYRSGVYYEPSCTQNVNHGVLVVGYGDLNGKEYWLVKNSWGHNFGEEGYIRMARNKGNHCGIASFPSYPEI

Row | Compound | Ki (Mammalian Cathepsin L) [nM] | Ki (Mammalian Cathepsin K) [nM] | Ki (Mammalian Cathepsin S) [nM]
1 | CC(C)C[C@H](NC(=O)c1ccc(O)cc1)C(=O)N[C@H]1C(=O)CO[C@H]1C [CAP1-L-Leu/drawing 70] | 2700 | 410 | 230
2 | CC(C)C[C@H](NC(=O)c1ccc(O)cc1)C(=O)N[C@@H]1COCC1=O [CAP1-L-Leu/drawing 73] | 390 | 70 | 270
3 | CCCC[C@H](NC(=O)c1ccc(O)cc1)C(=O)N[C@@H]1C(=O)CO[C@H]1C [CAP1-L-Nle/drawing 71] | 19300 | 8900 | 400
4 | CCCC[C@H](NC(=O)c1ccc(O)cc1)C(=O)N[C@H]1COCC1=O [CAP1-L-Nle/drawing 72] | 3300 | 1400 | 560
5 | CCCC[C@H](NC(=O)c1ccc(O)cc1)C(=O)N[C@@H]1COCC1=O [CAP1-L-Nle/drawing 73] | 4400 | 1150 | 490
6 | C[C@@H]1OCC(=O)[C@@H]1NC(=O)[C@H](Cc1ccc(O)cc1)NC(=O)c1ccc(O)cc1 [CAP1-L-Tyr/drawing 70] | 1800 | > 100000 | 1000
7 | O=C(NC(Cc1ccc(O)cc1)C(=O)NC1COCC1=O)c1ccc(O)cc1 [CAP1-L-Tyr/drawing 72] | 330 | 27100 | 860
8 | CC(C)CC[C@H](NC(=O)c1ccc(O)cc1)C(=O)N[C@H]1C(=O)CO[C@H]1C [CAP1-L-hLeu/drawing 70] | 29800 | 24100 | 300
9 | C[C@H]1OCC(=O)[C@H]1NC(=O)[C@H](CC(C)(C)C)NC(=O)c1ccc(O)cc1 [CAP1-L-tBu-Ala/drawing 69] | 3900 | 390 | 250
10 | C[C@H]1OCC(=O)[C@H]1NC(=O)[C@H](Cc1ccc(O)cc1)NC(=O)Cc1ccccc1 [CAP2-L-Tyr/drawing 69] | 220 | > 100000 | 3200
11 | CCCC[C@H](NC(=O)c1ccccc1)C(=O)N[C@H]1COCC1=O [CAP3-L-Nle/drawing 72] | 2800 | 5800 | 760
12 | C[C@H]1OCC(=O)[C@H]1NC(=O)[C@H](Cc1ccc(O)cc1)NC(=O)c1ccccc1 [CAP3-L-Tyr/drawing 69] | 170 | > 100000 | 1100
13 | C[C@@H]1OCC(=O)[C@@H]1NC(=O)[C@H](Cc1ccc(O)cc1)NC(=O)c1ccccc1 [CAP3-L-Tyr/drawing 70] | 1400 | > 100000 | 170
14 | O=C(N[C@@H](Cc1ccc(O)cc1)C(=O)N[C@H]1COCC1=O)c1ccccc1 [CAP3-L-Tyr/drawing 72] | 250 | > 100000 | 1600
15 | CC(C)C[C@H](NC(=O)c1cccs1)C(=O)N[C@@H]1C(=O)CO[C@@H]1C [CAP5-L-Leu/drawing 69] | 1480 | 290 | 480
16 | C[C@H]1OCC(=O)[C@H]1NC(=O)[C@H](Cc1ccc(O)cc1)NC(=O)c1cccs1 [CAP5-L-Tyr/drawing 69] | 500 | > 100000 | 1600
17 | C[C@H]1OCC(=O)[C@H]1NC(=O)[C@H](CC(C)(C)C)NC(=O)c1cccs1 [CAP5-L-tBu-Ala/drawing 69] | 24600 | 650 | 470
18 | Cc1cc(C(=O)N[C@@H](CC(C)C)C(=O)N[C@H]2C(=O)CO[C@H]2C)oc1C [CAP6-L-Leu/drawing 70] | 1100 | 750 | 610
